Results on 28 molecules are retold here after patent publication US10053463B2 (Janssen Pharmaceutica NV, priority 2013, dated 2018).

Each structure is given as a SMILES string.

Sequence of P2X7 (Q99572 whole entry): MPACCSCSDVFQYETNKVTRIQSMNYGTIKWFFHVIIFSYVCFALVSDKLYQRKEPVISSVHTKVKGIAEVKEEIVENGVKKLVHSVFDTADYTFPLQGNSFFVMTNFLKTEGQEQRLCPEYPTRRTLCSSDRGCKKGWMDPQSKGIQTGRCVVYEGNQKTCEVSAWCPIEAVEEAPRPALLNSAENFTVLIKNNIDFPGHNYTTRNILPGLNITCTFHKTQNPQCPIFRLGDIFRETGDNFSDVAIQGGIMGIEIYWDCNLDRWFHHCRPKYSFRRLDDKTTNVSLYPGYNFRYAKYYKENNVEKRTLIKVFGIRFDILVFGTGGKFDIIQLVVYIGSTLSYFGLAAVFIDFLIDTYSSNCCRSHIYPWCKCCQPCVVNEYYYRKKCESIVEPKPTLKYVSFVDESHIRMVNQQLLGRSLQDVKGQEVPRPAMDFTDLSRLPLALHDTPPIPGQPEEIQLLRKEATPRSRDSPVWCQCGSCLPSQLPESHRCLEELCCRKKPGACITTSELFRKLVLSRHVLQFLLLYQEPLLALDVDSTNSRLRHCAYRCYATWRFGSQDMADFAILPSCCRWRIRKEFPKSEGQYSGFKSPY

One test concerns the target P2X7 (Homo sapiens (Human), UniProt Q99572). Description: P2X7 antagonism in human peripheral blood mononuclear cells (PBMCs), IL-1β release. As to conditions: P2X7; Table 3 (additional runs); 10 μM compound; read-out: PBMC 10 μM (% control). It is filed as cell-based. Here is the method: P2X7 Antagonism in Human Peripheral Blood Mononuclear Cells (PBMCs) and Human Whole Blood.
Human blood was collected using a blood donor program. PBMCs were isolated from blood using a Ficoll density gradient technique. Briefly, blood was laid on Ficoll solution and centrifuged at RT for 20 minutes at 2000 rpm. The buffy layer (between red blood cells and plasma) was carefully collected by aspiration, washed with PBS and centrifuged again at 1500 rpm for 15 minutes. The resulting cell pellet was washed and plated on 96 well-plates for experiments. For the Human Whole Blood experiments, 150 μl of human blood was platted on 96 well-plates. Lipopolysaccharide (LPS) (30 ng/ml) was added to each well and incubated for 1 hour. Test compounds were then added and incubated for 30 minutes. The P2X7 agonist, 2′(3′)-O-(4-benzoylbenzoyl) adenosine 5′-triphosphate (Bz-ATP) was then added at a final concentration of 0.5 mM (PBMC) or 1 mM (blood). Cells were incubated for an additional 1.5 hours. At that point, supernatant was collected and stored for IL-1β assay using manufacturer's protocol for enzyme-linked immunosorbent assay (ELISA). Data was expressed as percent control, where control is defined as the difference in IL-1β release in LPS+Bz-ATP samples and LPS only samples. Data was plotted as response (% control) versus concentration to generate IC50 values. […] Data are analyzed and graphed on Graphpad Prism 5. For analysis, each concentration point is averaged from triplicate values and the averaged values are plotted on Graphpad Prism.
Regarding `C[C@H]1Cn2c(nnc2C2CCCCC2)C(=O)N1Cc1cccc(C(F)(F)F)c1Cl` [Example 51, (6S)-7-[2-Chloro-3-(trifluoromethyl)benzyl]-3-cyclohexyl-6-methyl-6,7-dihydro[1,2,4]triazolo[4,3-a]pyrazin-8(5H)-one], the remaining activity at 10 µM stood at 22.4%.

As to `C[C@H]1Cn2c(nnc2-c2cncc(Cl)c2)C(=O)N1Cc1cccc(C(F)(F)F)c1Cl` [Example 52, (6S)-3-(5-Chloropyridin-3-yl)-7-[2-chloro-3-(trifluoromethyl)benzyl]-6-methyl-6,7-dihydro[1,2,4]triazolo[4,3-a]pyrazin-8(5H)-one], the remaining activity at 10 µM was determined as 13.8%.

Turning to `C[C@H]1Cn2c(nnc2C2CCOCC2)C(=O)N1Cc1cccc(C(F)(F)F)c1Cl` [Example 53, (6S)-7-[2-Chloro-3-(trifluoromethyl)benzyl]-6-methyl-3-(tetrahydro-2H-pyran-4-yl)-6,7-dihydro[1,2,4]triazolo[4,3-a]pyrazin-8(5H)-one], the remaining activity at 10 µM is 33.2%.

`C[C@H]1Cn2c(nnc2-c2nccc(C(F)(F)F)n2)C(=O)N1Cc1cccc(C(F)(F)F)c1Cl` [Example 54, (6S)-7-[2-chloro-3-(trifluoromethyl)benzyl]-6-methyl-3-[4-(trifluoromethyl)pyrimidin-2-yl]-6,7-dihydro[1,2,4]triazolo[4,3-a]pyrazin-8(5H)-one]: the remaining activity at 10 µM worked out at 4.2%.

In the case of `C[C@H]1Cn2c(nnc2-c2cccc(C(F)(F)F)n2)C(=O)N1Cc1cccc(C(F)(F)F)c1Cl` [Example 55, (6S)-7-[2-Chloro-3-(trifluoromethyl)benzyl]-6-methyl-3-[6-(trifluoromethyl)pyridin-2-yl]-6,7-dihydro[1,2,4]triazolo[4,3-a]pyrazin-8(5H)-one], the remaining activity at 10 µM came out at 8.5%.

As to `C[C@H]1Cn2c(nnc2-c2ccc(Cl)cn2)C(=O)N1Cc1cccc(C(F)(F)F)c1Cl` [Example 56, (6S)-3-(5-Chloropyridin-2-yl)-7-[2-chloro-3-(trifluoromethyl)benzyl]-6-methyl-6,7-dihydro[1,2,4]triazolo[4,3-a]pyrazin-8(5H)-one], the remaining activity at 10 µM was 11.2%.

Turning to `Cc1cncc(-c2nnc3n2C[C@H](C)N(Cc2cccc(C(F)(F)F)c2Cl)C3=O)c1` [Example 57, (6S)-7-[2-Chloro-3-(trifluoromethyl)benzyl]-6-methyl-3-(5-methylpyridin-3-yl)-6,7-dihydro[1,2,4]triazolo[4,3-a]pyrazin-8(5H)-one], the remaining activity at 10 µM was 0.1%.

On to `C[C@H]1Cn2c(nnc2C2CCN(C(=O)OC(C)(C)C)C2)C(=O)N1Cc1cccc(C(F)(F)F)c1Cl` (stereo partly drawn) [Example 58, (6S)-tert-Butyl3-{7-[2-chloro-3-(trifluoromethyl)benzyl]-6-methyl-8-oxo-5,6,7,8-tetrahydro[1,2,4]triazolo[4,3-a]pyrazin-3-yl}pyrrolidine-1-carboxylate], for which the remaining activity at 10 µM turned out to be 24.6%.

On to `C[C@H]1Cn2c(nnc2C2CCCNC2)C(=O)N1Cc1cccc(C(F)(F)F)c1Cl` (stereo partly drawn) [Example 60, (6S)-7-[2-Chloro-3-(trifluoromethyl)benzyl]-6-methyl-3-piperidin-3-yl-6,7-dihydro[1,2,4]triazolo[4,3-a]pyrazin-8(5H)-one], for which the remaining activity at 10 µM is 17.1%.

Regarding `CC[C@H]1Cn2c(nnc2-c2cnccn2)C(=O)N1Cc1cccc(C(F)(F)F)c1Cl` [Example 71, (6S)-7-[2-Chloro-3-(trifluoromethyl)benzyl]-6-ethyl-3-pyrazin-2-yl-6,7-dihydro[1,2,4]triazolo[4,3-a]pyrazin-8(5H)-one], the remaining activity at 10 µM worked out at 1.2%.

Consider `CC[C@H]1Cn2c(nnc2-c2ncccn2)C(=O)N1Cc1cccc(C(F)(F)F)c1Cl` [Example 72, (6S)-7-[2-Chloro-3-(trifluoromethyl)benzyl]-6-ethyl-3-pyrimidin-2-yl-6,7-dihydro[1,2,4]triazolo[4,3-a]pyrazin-8(5H)-one], for which the remaining activity at 10 µM was found to be 1.9%.

For the molecule `CC[C@H]1Cn2c(nnc2-c2cccnc2)C(=O)N1Cc1cccc(C(F)(F)F)c1Cl` [Example 73, (6S)-7-[2-Chloro-3-(trifluoromethyl)benzyl]-6-ethyl-3-pyridin-3-yl-6,7-dihydro[1,2,4]triazolo[4,3-a]pyrazin-8(5H)-one], the remaining activity at 10 µM came out at 6.2%.

In the case of `CC[C@H]1Cn2c(nnc2-c2cc[nH]n2)C(=O)N1Cc1cccc(C(F)(F)F)c1Cl` [Example 74, (6S)-7-[2-Chloro-3-(trifluoromethyl)benzyl]-6-ethyl-3-(1H-pyrazol-3-yl)-6,7-dihydro[1,2,4]triazolo[4,3-a]pyrazin-8(5H)-one], the remaining activity at 10 µM stood at 0.3%.

For `CC[C@H]1Cn2c(nnc2-c2ncc(F)cn2)C(=O)N1Cc1cccc(C(F)(F)F)c1Cl` [Example 75, (6S)-7-[2-Chloro-3-(trifluoromethyl)benzyl]-6-ethyl-3-(5-fluoropyrimidin-2-yl)-6,7-dihydro[1,2,4]triazolo[4,3-a]pyrazin-8(5H)-one], the remaining activity at 10 µM was found to be 22.6%.

On to `CC[C@H]1Cn2c(nnc2-c2ccc(F)cn2)C(=O)N1Cc1cccc(C(F)(F)F)c1Cl` [Example 76, (6S)-7-[2-Chloro-3-(trifluoromethyl)benzyl]-6-ethyl-3-(5-fluoropyridin-2-yl)-6,7-dihydro[1,2,4]triazolo[4,3-a]pyrazin-8(5H)-one], for which the remaining activity at 10 µM turned out to be 16.9%.

`C[C@H]1Cn2c(nnc2-c2cnccn2)C(=O)N1` [Example 77, (6S)-6-Methyl-3-pyrazin-2-yl-6,7-dihydro[1,2,4]triazolo[4,3-a]pyrazin-8(5H)-one]: the remaining activity at 10 µM is 105%.

`C[C@H]1Cn2c(nnc2-c2cnccn2)C(=O)N1Cc1ccc(F)cc1Cl` [Example 78, (6S)-7-(2-Chloro-4-fluorobenzyl)-6-methyl-3-pyrazin-2-yl-6,7-dihydro[1,2,4]triazolo[4,3-a]pyrazin-8(5H)-one]: the remaining activity at 10 µM was 8.3%.

In the case of `C[C@H]1Cn2c(nnc2-c2cnccn2)C(=O)N1Cc1ccccc1` [Example 79, (6S)-7-Benzyl-6-methyl-3-pyrazin-2-yl-6,7-dihydro[1,2,4]triazolo[4,3-a]pyrazin-8(5H)-one], the remaining activity at 10 µM was 15.6%.

Consider `C[C@H]1Cn2c(nnc2-c2cnccn2)C(=O)N1Cc1ccccc1Cl` [Example 80, (6S)-7-(2-Chlorobenzyl)-6-methyl-3-pyrazin-2-yl-6,7-dihydro[1,2,4]triazolo[4,3-a]pyrazin-8(5H)-one], for which the remaining activity at 10 µM stood at 8.4%.

In the case of `C[C@H]1Cn2c(nnc2-c2cnccn2)C(=O)N1Cc1ccc(S(C)(=O)=O)cc1Cl` [Example 81, (6S)-7-[2-Chloro-4-(methylsulfonyl)benzyl]-6-methyl-3-pyrazin-2-yl-6,7-dihydro[1,2,4]triazolo[4,3-a]pyrazin-8(5H)-one], the remaining activity at 10 µM came to 170%.

`C[C@H]1Cn2c(nnc2-c2cnccn2)C(=O)N1Cc1ccc(Cl)cc1S(C)(=O)=O` [Example 82, (6S)-7-[4-Chloro-2-(methylsulfonyl)benzyl]-6-methyl-3-pyrazin-2-yl-6,7-dihydro[1,2,4]triazolo[4,3-a]pyrazin-8(5H)-one]: the remaining activity at 10 µM came to 22.2%.

On to `C[C@H]1Cn2c(nnc2-c2cnccn2)C(=O)N1Cc1ccccc1OC(F)(F)F` [Example 83, (6S)-6-Methyl-3-pyrazin-2-yl-7-[2-(trifluoromethoxy)benzyl]-6,7-dihydro[1,2,4]triazolo[4,3-a]pyrazin-8(5H)-one], for which the remaining activity at 10 µM came out at 15.6%.

For `C[C@H]1Cn2c(nnc2-c2cnccn2)C(=O)N1Cc1cc2c(cc1Cl)OCO2` [Example 84, (6S)-7-[(6-Chloro-1,3-benzodioxol-5-yl)methyl]-6-methyl-3-pyrazin-2-yl-6,7-dihydro[1,2,4]triazolo[4,3-a]pyrazin-8(5H)-one], the remaining activity at 10 µM came to 25.9%.

For `Cc1c(CN2C(=O)c3nnc(-c4cnccn4)n3C[C@@H]2C)cccc1C(F)(F)F` [Example 85, (6S)-6-Methyl-7-[2-methyl-3-(trifluoromethyl)benzyl]-3-pyrazin-2-yl-6,7-dihydro[1,2,4]triazolo[4,3-a]pyrazin-8(5H)-one], the remaining activity at 10 µM amounted to 16.6%.

In the case of `C[C@H]1Cn2c(nnc2-c2cnccn2)C(=O)N1Cc1c(Cl)cccc1Cl` [Example 86, (6S)-7-(2,6-Dichlorobenzyl)-6-methyl-3-pyrazin-2-yl-6,7-dihydro[1,2,4]triazolo[4,3-a]pyrazin-8(5H)-one], the remaining activity at 10 µM worked out at 28.3%.

As to `Cc1cccc(C)c1CN1C(=O)c2nnc(-c3cnccn3)n2C[C@@H]1C` [Example 87, (6S)-7-(2,6-Dimethylbenzyl)-6-methyl-3-pyrazin-2-yl-6,7-dihydro[1,2,4]triazolo[4,3-a]pyrazin-8(5H)-one], the remaining activity at 10 µM turned out to be 27%.

Consider `C[C@H]1Cn2c(nnc2-c2cnccn2)C(=O)N1Cc1cccc(C(F)(F)F)c1` [Example 88, (6S)-6-Methyl-3-pyrazin-2-yl-7-[3-(trifluoromethyl)benzyl]-6,7-dihydro[1,2,4]triazolo[4,3-a]pyrazin-8(5H)-one], for which the remaining activity at 10 µM was found to be 29.9%.

As for `C[C@H]1Cn2c(nnc2-c2cnccn2)C(=O)N1Cc1ccccc1[N+](=O)[O-]` [Example 89, (6S)-6-Methyl-7-(2-nitrobenzyl)-3-pyrazin-2-yl-6,7-dihydro[1,2,4]triazolo[4,3-a]pyrazin-8(5H)-one], the remaining activity at 10 µM came to 30.7%.

The same test, now with this note: Table 2; 10 μM compound; IL-1β release, LPS + 0.5 mM Bz-ATP.
Regarding `CC[C@H]1Cn2c(nnc2-c2cnccn2)C(=O)N1Cc1cccc(C(F)(F)F)c1Cl` [Example 71, (6S)-7-[2-Chloro-3-(trifluoromethyl)benzyl]-6-ethyl-3-pyrazin-2-yl-6,7-dihydro[1,2,4]triazolo[4,3-a]pyrazin-8(5H)-one], the “PBMC 10 μM (% control)” value came to 1.2 % control.
